Read-outs that look alike come from different tables or passages of the source.
Key:
retinal toxicity [1] = assay: Estimated retinal toxicity of long-term DHCQ therapy in humans; format: in vivo, human
Excerpt: The estimated rate of retinal toxicity for long-term treatment with DHCQ is less than 50% of the currently reported rate for HCQ when used at a similar effective cumulative dose and over a similar time period. More specifically, as compared to the rates of retinal toxicity described by Marmor et al. for treatment with HCQ (Ophthalmology. 2011 February; 118(2):415-22), given a similar level of therapeutic activity and time period of dosing for both HCQ and DHCQ, DHCQ is estimated to provide less than 50% of retinal toxicity as compared to that with HCQ dosing. Thus, in patient populations analogous to that described by the […] and Marmor et al (Ophthalmology. 2011 February; 118(2):415-22) where the retinal toxicity rate approach 1% after 5 years, DHCQ therapy is estimated to reduce the retinal toxicity to less that 0.5% of treated individuals. Further, given conventional assumptions that retinal screening is justified as rates of toxicity approach 1%, the reduced cumulative rates of retinal toxicity associated with DHCQ therapy will substantially reduce the need for retinal toxicity screening to a single screening at 5 and 10 years, or entirely negate the need for screening.

ARPE-19 cells = tested on: ARPE-19 cells
Description: The major serious risk to long term administration of hydroxychloroquine is retinal accumulation and subsequent ocular toxicity (Terahi et al, 2008. Semin Opthal. (3):201-208. PMID). The ocular deposition of HCQ, DHCQ, and BDCQ was evaluated by direct retinal cellular toxicity by incubating equivalent concentrations of these molecules with the retinal pigmented epithelial cell line ARPE-19. ARPE-19 is a human retinal pigment epithelial cell line with differentiated properties (Dunn et al., Exp Eye Res. 1996 62(2):155-69). ARPE-19 cells were grown to 90% confluence, and then exposed to 10 µg/ml of HCQ, DHCQ, BDCQ, or vehicle control for 24 hours, following which microscopic analysis and photomicroscopy was performed at 40× power.
As described above, ARPE-19 cells were grown to 90% confluence then exposed to 10 μg/ml HCQ, DHCQ, BDCQ, or vehicle control for 24 hours followed by quantitation of cell death by lactate dehydrogenase (LDH) release assay (Abcam).

[2] = tested on: inflammatory cytokines in mouse OA synovium; assay: Multiplex cytokine assay of OA synovial tissue from treated DMM mice; format: in vivo; settings: for levels of inflammatory cytokines in OA synovium vs vehicle control: heat map, multiplex bead assay
Excerpt: From a parallel experiment to the mouse OA experiment presented in Example 12 and FIG. 19, following in vivo dosing and at the time of termination OA synovial tissue was microdissected, homogenized to form a lysate, centrifuged, and supernatants assayed for levels of inflammatory cytokines using a multiplex bead-based cytokine assay (BioRad Laboratories, Hercules, Calif.).

[3] = tested on: established EAE in SJL mice; assay: EAE mouse model for MS, treatment of established disease; format: in vivo; settings: for EAE clinical score (severity of established EAE): 100 mg/kg/day oral gavage from day 14, 50 mg/kg/day 8 days later; for EAE clinical score (severity of established EAE) / Inflammatory Foci Score in the parenchyma / Inflammatory Foci Score, total score / Inflammatory Foci Score in the meninges: vs vehicle; for Inflammatory Foci Score in the parenchyma / Inflammatory Foci Score, total score / Inflammatory Foci Score in the meninges: brain histology at termination; for Inflammatory Foci Score in the meninges: P<0.05 two-tailed T test
Excerpt: Experimental autoimmune encephalomyelitis (EAE), a mouse model for MS, was induced in SJL mice (n=10 per group) by immunization with proteolipid protein peptide 139-151 (PLP 139-151) in CFA. […] At the termination of the experiment, mice were sacrificed, and the brains harvested, fixed, sections histologically scored by a blinded examiner for the number of inflammatory foci in the meninges and parenchyma using an established “Inflammatory Foci Score” (Chang et al, Recovery from EAE is associated with decreased survival of encephalitogenic T cells in the CNS of B7-1/B7-2-deficient mice. European J. Immunology, 2003, 33(7):2022-32).

retinal toxicity [4] = settings: cited from earlier work
human OA = settings: cited from earlier work

SMILES | estimated retinal toxicity rate in treated individuals after 5 years (retinal toxicity [1]; population where HCQ rate approaches 1% after 5 years) [%] | estimated rate of retinal toxicity, as share of the reported rate for HCQ (retinal toxicity [1]; similar effective cumulative dose and time period) | ARPE-19 cellular toxicity by microscopy (ARPE-19 cells; human, 24 h, 10 µg/ml) | cytokines, DHCQ monotherapy vs vehicle control, atorvastatin alone, HCQ+atorvastatin and HCQ alone (SAM) ([2]; false discovery rate <0.1%) | levels of inflammatory cytokines in OA synovium vs vehicle control [2] | EAE clinical score (severity of established EAE) [3] | Inflammatory Foci Score in the parenchyma [3] | Inflammatory Foci Score, total score [3] | Inflammatory Foci Score in the meninges [3] | therapeutic activity in established EAE compared to HCQ ([3]; mouse, in vivo) | ARPE-19 cellular toxicity by microscopy (ARPE-19 cells) | prevalence of retinal toxicity (retinal toxicity [4]; conventional doses, 400 mg/day common) | retinal toxicity after 5-7 years of use (retinal toxicity [4]; in vivo) [%] | risk of retinal toxicity after 7 years of usage or 1000 grams of total exposure (retinal toxicity [4]; in vivo) [times higher] | risk of retinal toxicity after about 7 years of treatment (retinal toxicity [4]; in vivo) | incidence of retinal toxicity after 5 years (retinal toxicity [4]; treated humans, conventional doses) | therapeutic benefit in erosive OA (human OA; case series) | disease-modifying or pain-reducing activity in non-erosive OA (human OA; in vivo)
CC(CCCNCCO)Nc1ccnc2cc(Cl)ccc12 (centres unmarked) [DHCQ, desethylhydroxychloroquine] | < 0.5 | less than 50% | less ARPE-19 cellular toxicity | reduced the levels of multiple inflammatory cytokines including IL-1b, MCP-1, IFNγ, TNF-alpha IL12p40, and IL-12p70 | lower | reducing the severity of EAE | statistically reduced | statistically reduced | statistically reduced | more robust therapeutic activity than treatment with HCQ | – | – | – | – | – | – | – | –
CCN(CCO)CCCC(C)Nc1ccnc2cc(Cl)ccc12 (centres unmarked) [HCQ, hydroxychloroquine] | – | – | – | – | lower | reducing the severity of EAE | trends towards reductions | trends towards reductions | reduced | – | increased cytotoxicity and death | 6.8 users per 1,000 | ~1 | 5 | approximately 1% | approximately 1% | trends towards therapeutic benefit | has not demonstrated disease-modifying or pain-reducing activity

Source: US9931335B2, “Desethylhydroxychloroquine for the treatment of diseases associated with inflammation” (The Board of Trustees of the Leland Stanford Junior …, priority 2013, dated 2018)
